The conditions of series [1]: Crystal.
The nature of series [2]: Molar enthalpy of transition or fusion. The note with it: Crystal.

Numbers after ± are expanded uncertainties.

`CC1=CCC2C(=O)OC(=O)C2C1` (configuration not stated) [4-methyl-cyclohex-4-ene-1, 2-dicarboxylic acid anhydride]: the Normal melting temperature in series [1] came to 62.39 ± 0.83 °C. In addition, the “Molar enthalpy of transition or fusion” value in series [2] was determined as 17.67 ± 0.1 kJ/mol.

Source of the values: the NIST ThermoML archive (doi:10.1021/je049585t).
